Structures can show the parent of a compound that is named as a salt.
Target: T1, protein farnesyltransferase (Rattus norvegicus, UniProt Q02293+Q04631)
T1 construct: Rat brain protein farnesyltransferase activity is measured; from tissue; host or cells: rat brain; purified according to Reiss et al., Cell 62:81-88 (1990), steps one through three
Assay: in vitro inhibition of protein farnesyltransferase (scintillation proximity assay, biotin-K Ras B fragment)
Assay type: biochemical
Details: at 1 × 10^-5 M
Procedure, shortened: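 Rat brain enzyme, purified through three steps, in a scintillation proximity assay kit with biotin-K Ras B fragment substrate at 0.1 mM final. Value is % inhibition of farnesylation.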

Compound `CSCC[C@H](NC(=O)c1ccc(CNCCCCc2ccccc2)cc1-c1ccccc1)C(=O)O` [Example 718] has an inhibition at 10 µM of 40%.

Same assay, conditions: at 1 × 10^-6 M

Point of comparison: `CSCC[C@H](NC(=O)c1ccc(CCc2ccccc2-c2ccccc2)cc1-c1ccccc1C)C(=O)[O-].[Li+]` [Example 452], “% inhibition of farnesyltransferase” value 96%. Against it:
- CSCC[C@H](NC(=O)c1ccc(CSCc2ccccc2C)cc1-c1ccccc1C)C(=O)[O-].[Li+] [Example 557] — lower, 93%
- CSCC[C@H](NC(=O)c1ccc(CCCCC2CCCCC2)cc1-c1ccccc1C)C(=O)O [Example 478] — higher, 98%
- Cc1ccccc1-c1cc(CN(C2CC2)C(C)(C)CC2CCCCC2)ccc1C(=O)N[C@@H](CCS(C)(=O)=O)C(=O)O [Example 320] — lower, 93%
- CSCC[C@H](NC(=O)c1ccc(COC2CCN(Cc3ccccc3)C2)cc1-c1ccccc1C)C(=O)O (some centres unmarked) [Example 987] — lower, 93%
- CSCC[C@H](NC(=O)c1ccc(COC2CCN(C(=O)OC(C)(C)C)CC2)cc1-c1ccccc1C)C(=O)[O-].[Li+] [Example 808] — lower, 88%
- CSCC[C@H](NC(=O)c1ccc(/C=C/c2ccc(Oc3ccccc3)nn2)cc1-c1ccccc1C)C(=O)O [Example 810] — lower, 89%
- CSCC[C@H](NC(=O)c1ccc(COCC(CC2CCCCC2)CC2CCCCC2)cc1-c1ccccc1C)C(=O)O [Example 889] — lower, 95%
- CSCC[C@H](NC(=O)c1ccc(S(=O)(=O)NCCC2CCCCC2)cc1-c1ccccc1C)C(=O)O [Example 772] — lower, 79%
- CSCC[C@H](NC(=O)c1ccc(OCCC2CCCCC2)cc1-c1ccccc1C)C(=O)[O-].[Li+] [Example 552] — lower, 88%

Same assay, conditions: at 1 × 10^-6 M; read-out: % inhibition of farnesyltransferase

Point of comparison: `CSCC[C@H](NC(=O)c1ccc(NC(=O)Cc2ccccc2)cc1-c1ccccc1C)C(=O)O` [Example 540, N-[4-N-phenylacetylamino-2-(2-methylphenyl)benzoyl]methionine lithium salt], inhibition at 1 µM 40%. Against it:
- CSCC[C@H](NC(=O)c1ccc(CN(Cc2ccccc2)Cc2ccccc2)cc1-c1ccccc1)C(=O)O [Example 834, N-[4-N,N-dibenzylaminomethyl-2-phenylbenzoyl]methionine lithium salt] — higher, 55%
- CSCC[C@H](NC(=O)c1ccc(CNCC(O)CO)cc1-c1ccccc1)C(=O)O (some centres unmarked) [Example 632] — higher, 43%
- CSCC[C@H](NC(=O)c1ccc(CNCCN(C(C)C)C(C)C)cc1-c1ccccc1)C(=O)O [Example 636] — higher, 72%

Same assay, conditions: at 1 × 10^-7 M; read-out: % inhibition of farnesyltransferase

Point of comparison: `CSCC[C@H](NC(=O)c1ccc(CN[C@@H](CO)C2CCCCC2)cc1-c1ccccc1C)C(=O)O` [Example 604, N-[4-(2-cyclohexylethan-1-ol-2-ylaminomethyl)-2-(2-methylphenyl)benzoyl]methionine Lithium Salt], inhibition at 0.1 µM 86%. Against it:
- CSCC[C@H](NC(=O)c1ccc(CNCCc2c[nH]c3ccccc23)cc1-c1ccccc1C)C(=O)O [Example 519, N-[4-N-(2-indol-3-ylethyl)aminomethyl-2-(2-methylphenyl)benzoyl]methionine lithium salt] — higher, 89%

Same assay, conditions: at 1 × 10^-8 M

Point of comparison: `CCSC[C@H](CC1CCCCC1)OCc1ccc(C(=O)N[C@@H](CCSC)C(=O)O)c(-c2ccccc2C)c1` [Example 606], “% inhibition of farnesyltransferase” value 93%. Against it:
- CSCC[C@H](NC(=O)c1ccc(COCc2ccccc2C(C)C)cc1-c1ccccc1C)C(=O)[O-].[Li+] [Example 938] — lower, 61%

Same assay, conditions: at 1 × 10^-8 M; read-out: % inhibition of farnesyltransferase

`CSCC[C@H](NC(=O)c1ccc(CN(Cc2ccccc2)c2cccc(C(C)=O)c2)cc1-c1ccccc1C)C(=O)O` [Example 845, N-[4-N-(N-benzyl-N-(3-acetylphenyl)aninomethyl)-2-(2-methylphenyl)benzoyl]methionine lithium salt] gave an inhibition at 0.01 µM of 85%.
